Data from publication PMC5410965 (ACS infectious diseases, 2016).

Experiments:
[1] = tested on: National Cancer Institute panel of sixty human cancer cell lines; experiment: National Cancer Institute panel of sixty human cancer cell lines, growth; format: cell-based; settings: 10 μM; NCI sixty human cancer cell lines
[2] = tested on: HepG2 human liver carcinoma cell line; experiment: Toxicity to HepG2 cells; settings: concentrations as high as 50 μM
Mtb 20S = Mtb 20S (Mycobacterium tuberculosis, UniProt P9WHT9); settings: second-order rate constant for inhibition; substrate Suc-LLVY-AMC; triplicate
Mtb 20S versus human 20S = settings: human 20S over Mtb 20S; cited from earlier work

Sequence of Mtb 20S (P9WHT9 58-291): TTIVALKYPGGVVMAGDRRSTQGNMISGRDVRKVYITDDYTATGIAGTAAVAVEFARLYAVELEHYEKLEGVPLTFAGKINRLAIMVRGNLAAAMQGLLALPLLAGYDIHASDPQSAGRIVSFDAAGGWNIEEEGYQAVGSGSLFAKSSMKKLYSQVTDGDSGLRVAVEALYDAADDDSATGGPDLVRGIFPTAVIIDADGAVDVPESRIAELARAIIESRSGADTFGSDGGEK
Sequence of Mtb 20S (P9WHU1 whole entry partner): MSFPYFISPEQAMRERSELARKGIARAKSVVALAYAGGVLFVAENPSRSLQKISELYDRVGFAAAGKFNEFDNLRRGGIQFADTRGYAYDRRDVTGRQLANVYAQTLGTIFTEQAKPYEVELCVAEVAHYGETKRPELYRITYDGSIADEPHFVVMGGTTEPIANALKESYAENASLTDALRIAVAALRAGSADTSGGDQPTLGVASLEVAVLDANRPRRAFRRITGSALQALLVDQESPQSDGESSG

## COC(=O)[C@@H](NC(=O)N[C@H](C(=O)N[C@H]1CCCCNC(=O)/C=C/[C@H](C(C)C)NC1=O)C(C)C)C(C)C [Compound 1, syringolin B methyl ester]
[1]
  mean growth compared to untreated (vehicle) controls: 27%
[2]
  toxicity to HepG2 cells: toxic
Mtb 20S
  Mtb 20S kin/Ki: 4.60 M⁻¹ s⁻¹

## CC(C)C[C@H](NC(=O)[C@H](Cc1ccccc1)NC(=O)c1cnccn1)B(O)O [bortezomib]
Mtb 20S versus human 20S
  preference for reversible inhibition of human 20S: 18 fold
